# Several values for one entry are separate records, joined by “and”; a condition that tells them apart may be missing. Identical values can stand only once. Entries after “also recorded” stand apart in the source; their conditions may differ. Like-named read-outs stand apart in the source and are kept apart here.
# Columns and labels:
# [1] = tested on: P. falciparum Dd2-B2 and NF54-HGL; experiment: In vitro selection of drug-resistant parasites; assay type: cell-based, Plasmodium falciparum
# Method: Drug media was changed daily until cultures were cleared and every other day subsequently. […] Recrudescence was monitored by flow cytometry on an Accuri C6 (BD Biosciences) using BD C6 Plus for 60 days using SYBR Green and MitoTracker Deep Red FM (Life Technologies) as nuclear stain and vital dye, respectively, and data were analyzed using FlowJo (Supplementary Fig. 23). […] Whole-genome sequencing was performed to test for single nucleotide polymorphisms (SNPs) or copy number variations.
# [2] = tested on: cryopreserved human hepatocytes; experiment: MTT cytotoxicity in induction-study hepatocytes; assay type: cell-based; conditions: up to 500 µM, 72 h, one donor
# [3] = tested on: CYP2B6; experiment: CYP induction (mRNA) in human hepatocytes; assay type: in vitro ADME; conditions: for CYP2B6 mean fold induction: per donor
# Method: (§1) Positive control inducers (omeprazole for CYP1A2, phenobarbital for CYP2B6, and rifampicin for CYP3A4), were incubated alongside the test compound. For mRNA assessment, cells were lysed and resultant samples analyzed using an ABI 7900 HT real-time PCR system.
# [4] = tested on: CYP3A4; experiment: CYP induction (mRNA) in human hepatocytes; assay type: in vitro ADME; conditions: for CYP3A4 mean fold induction: per donor
# Method: as §1
# [5] = tested on: CYP1A2; experiment: CYP induction (mRNA) in human hepatocytes; assay type: in vitro ADME; conditions: for CYP1A2 mean fold induction: per donor
# Method: as §1
# [6] = tested on: P. falciparum NF54 male gametocytes; experiment: Dual gamete formation assay, male; assay type: cell-based, Plasmodium falciparum
# Method: After a 48-h incubation, gamete formation was stimulated by a drop in temperature (from 37 °C to 26 °C), and the addition of xanthurenic acid (2.5 µM). At 20 min after induction, exflagellation was recorded by automated time-lapse microscopy. After data collection, the plate was returned to a 26 °C incubator and incubated for 24 h. Female gamete formation was assessed by live staining with a Cy3-labelled anti-Pfs25 monoclonal antibody (1:2222) and recorded by automated microscopy.
# [7] = UV scan for phototoxicity; assay type: physicochemical
# [8] = tested on: human primary hepatocytes; experiment: Primary hepatocyte viability (CellTiter-Blue), human; assay type: cell-based; conditions: for %Viability: Human primary hepatocytes
# Method: Safety studies were performed by commercial services using their standard protocols. […] Genotoxicity was investigated using the Ames test (Bacterial Reverse Mutation Assay) (Covance Laboratories Ltd, North Yorkshire, England). In vitro mammalian cell micronucleus screening assay was studied in human peripheral blood lymphocytes (BioReliance Corporation, Rockville, USA). Cardiotoxicity was determined against the hERG channel in an automated patch clamp assay using the Qpatch or against the hNaV 1.5, hKV 1.5 and hCaV 1.2 using a manual patch-clamp technique (Metrion Biosciences, Cambridge, UK). Cytotoxicity in human and rat primary hepatocytes was assessed using the CellTiter-Blue assay performed by commercial services (KaLy-Cell). The viability of HepG2 cells was monitored through the addition of 1 mM resazurin. Following 6 h incubation, the relative amount of reduced resazurin was detected in a fluorimeter and compared to the assay controls (vehicle: 0.1% DMSO and positive control: 10 µM puromycin).
# [9] = Pharmacokinetics in mice; assay type: in vivo, male CD1 mice
# Method: Subsequently, samples were spun down at 1640 g for 5-10 min at 4 °C within 30 min after collection and plasma was collected. […] Urine was collected following an intravenous dose in both rat and dog, allowing renal clearance to be estimated. Human renal clearance was estimated from dog renal clearance as previously described[40] and other human PK parameters were predicted using allometric scaling and/or in vitro clearance data. PK parameters were calculated by naïve pooled approach using WinNonLin software (Phoenix, version 6.3).
# [10] = tested on: artemisinin-resistant P. falciparum Cambodian field isolates; experiment: Drug susceptibility of culture-adapted Cambodian isolates; assay type: cell-based, Plasmodium falciparum
# Method: Endpoint readout to determine parasites density was performed with a High-Content Confocal Imaging microscope (Lionheart™ FX Automated Microscope, Biotek), IC50 values were obtained using ICestimator software (http://www.antimalarial-icestimator.net/runregression1.2.htm).
# [11] = tested on: P. falciparum NF54 asexual blood-stage parasites; design: method as in earlier work; conditions: ref 15 (Schalkwijk et al.); cited from earlier work
smiles,measurement,setting,value
C[C@@H](CNC(=O)[C@H](O)C(C)(C)CO)NC(=O)c1cc(F)c(F)cc1F [MMV693183],minimum inoculum for resistance development,[1],10^9
same,Frequency (# of parasite positive flasks or wells),"[1]; 1x10^5 Dd2-B2, 15 nM",0/24
same,Frequency (# of parasite positive flasks or wells),"[1]; 1x10^7 Dd2-B2, 15-22 nM / 10.5-14 nM",0/3
same,Frequency (# of parasite positive flasks or wells),"[1]; 1x10^8 Dd2-B2, 10.5-14 nM",0/3
same,Frequency (# of parasite positive flasks or wells),"[1]; 1x10^9 Dd2-B2, 12-27 nM",3/3
same,Frequency (# of parasite positive flasks or wells),"[1]; NF54, 7 nM",2/2
same,cell viability (MTT),[2],no change in cell viability
same,CYP2B6 mean fold induction,[3]; 5 µM,1.75 and 0.995 and 1.18
same,CYP2B6 mean fold induction,[3]; 15 µM,1.38 and 0.951 and 1.660
same,CYP2B6 mean fold induction,[3]; 50 µM,0.959 and 0.828 and 0.886
same,CYP2B6 mean fold induction,[3]; 150 µM,0.663 and 0.721 and 0.727
same,CYP2B6 mean fold induction,[3]; 250 µM,0.667 and 0.582
same,CYP2B6 mean fold induction,[3]; 500 µM,0.495 and 0.699 and 0.325
same,CYP2B6 induction,[3]; up to 500 µM,did not induce CYP1A2 nor CYP2B6
same,CYP3A4 mean fold induction,[4]; 5 µM,1.22 and 1.03 and 1.21
same,CYP3A4 mean fold induction,[4]; 15 µM,0.824 and 0.905 and 0.816
same,CYP3A4 mean fold induction,[4]; 50 µM,0.779 and 0.500 and 1.26
same,CYP3A4 mean fold induction,[4]; 150 µM,1.19 and 0.477 and 1.98
same,CYP3A4 mean fold induction,[4]; 250 µM,0.665 and 2.86
same,CYP3A4 mean fold induction,[4]; 500 µM,3.6 and 3.63 and 1.49 and 3.16
same,concentration at which CYP3A4 was induced,"[4]; 72 h, three donors",greater than 150 µM
same,CYP1A2 mean fold induction,[5]; 5 µM,1.48 and 1.11 and 1.38
same,CYP1A2 mean fold induction,[5]; 15 µM,1.04 and 1.07 and 0.844
same,CYP1A2 mean fold induction,[5]; 50 µM,0.874 and 0.824 and 0.795
same,CYP1A2 mean fold induction,[5]; 150 µM,0.704 and 0.613 and 0.609
same,CYP1A2 mean fold induction,[5]; 250 µM,0.586 and 0.436
same,CYP1A2 mean fold induction,[5]; 500 µM,0.357 and 0.496 and 0.293
same,CYP1A2 induction,[5]; up to 500 µM,did not induce CYP1A2 nor CYP2B6
same,IC50,[6],1000 nM
same,UV absorbance,[7],No absorbance >290 nm; also recorded: no detectable absorption above 290 nm
same,%Viability,"[8]; Lot R1323T, 0.1 µM",98%
same,%Viability,"[8]; Lot R1323T, 0.5 µM",92%
same,%Viability,"[8]; Lot R1323T, 1 µM",88%
same,%Viability,"[8]; Lot R1323T, 5 µM",92%
same,%Viability,"[8]; Lot R1323T, 10 µM",99%
same,%Viability,"[8]; Lot S1552T, 0.1 µM",98%
same,%Viability,"[8]; Lot S1552T, 0.5 µM",98%
same,%Viability,"[8]; Lot S1552T, 1 µM",102%
same,%Viability,"[8]; Lot S1552T, 5 µM",97%
same,%Viability,"[8]; Lot S1552T, 10 µM",104%
same,IC50,[8]; primary human hepatocytes,> 10000 nM
same,Observed hepatic/ predicted hepatic,[9]; Mouse,< 1.9
same,Observed total-renal = observed hepatic,[9]; Mouse,< 13.4 mL/min/kg
same,Predicted hepatic plasma clearance,"[9]; Mouse, from in vitro hepatic clearance, Fu,p and B:P",7 mL/min/kg and 7.0 mL/min/kg
same,Norm. conc i.v.,"[9]; Mouse, Time (hrs) 0",0 ng/mL
same,Norm. conc i.v.,"[9]; Mouse, Time (hrs) 0.083333",1320 ng/mL and 1393.33 ng/mL and 1330 ng/mL
same,Norm. conc i.v.,"[9]; Mouse, Time (hrs) 0.25",846.667 ng/mL and 920 ng/mL and 863.333 ng/mL
same,Norm. conc i.v.,"[9]; Mouse, Time (hrs) 0.5",636.667 ng/mL and 626.667 ng/mL and 630 ng/mL
same,Norm. conc i.v.,"[9]; Mouse, Time (hrs) 1",324.667 ng/mL and 366.667 ng/mL and 300 ng/mL
same,Norm. conc i.v.,"[9]; Mouse, Time (hrs) 2",132.333 ng/mL and 151 ng/mL and 104 ng/mL
same,Norm. conc i.v.,"[9]; Mouse, Time (hrs) 4",39.3333 ng/mL and 48.3333 ng/mL and 26.9333 ng/mL
same,Norm. conc p.o.,"[9]; Mouse, Time (hrs) 0",0 ng/mL
same,Norm. conc p.o.,"[9]; Mouse, Time (hrs) 0.25",870 ng/mL and 850 ng/mL and 790 ng/mL
same,Norm. conc p.o.,"[9]; Mouse, Time (hrs) 0.5",610 ng/mL and 600 ng/mL and 553.333 ng/mL
same,Norm. conc p.o.,"[9]; Mouse, Time (hrs) 1",333.333 ng/mL and 313.333 ng/mL and 271.333 ng/mL
same,Norm. conc p.o.,"[9]; Mouse, Time (hrs) 2",115 ng/mL and 103.667 ng/mL and 65 ng/mL
same,Norm. conc p.o.,"[9]; Mouse, Time (hrs) 24",0.01333 ng/mL and 0.02 ng/mL
same,AUC0-∞,"[9]; i.v. 3 mg/kg, mean",3764.7 ng·h/mL
same,AUClast,"[9]; i.v. 3 mg/kg, mean",3763.8 ng·h/mL
same,C0,"[9]; i.v. 3 mg/kg, mean",5013.7 ng/mL
same,Kel,"[9]; i.v. 3 mg/kg, mean",0.58 h⁻¹
same,Vss_obs,"[9]; i.v. 3 mg/kg, mean",1.0265 L/kg
same,CLtotal,"[9]; i.v. 3 mg/kg, mean, 3 mg/kg",13.4 mL/min/kg and 13.36 mL/min/kg
same,T1/2,"[9]; i.v. 3 mg/kg, mean, 3 mg/kg",1.2 h and 1.19 h
same,share of total clearance contributed by the kidney,[9]; mice,48%
same,clearance contributed by the kidney,"[9]; mice, total minus predicted hepatic",6.4 mL/min/kg
same,%F,"[9]; p.o. 30 mg/kg, mean",70.03%
same,AUC0-∞,"[9]; p.o. 30 mg/kg, mean",26362.9 ng·h/mL
same,AUClast,"[9]; p.o. 30 mg/kg, mean",26362.2 ng·h/mL
same,CLtotal,"[9]; p.o. 30 mg/kg, mean",19.21 mL/min/kg
same,Cmax,"[9]; p.o. 30 mg/kg, mean",25100.0 ng/mL
same,Kel,"[9]; p.o. 30 mg/kg, mean",0.67 h⁻¹
same,T1/2,"[9]; p.o. 30 mg/kg, mean",1.05 h
same,Tmax,"[9]; p.o. 30 mg/kg, mean",0.25 h
same,sensitivity of isolates,[10],sensitive to MMV693183
same,IC50,"[10]; ART isolates, read-out: IC50s",1.36 nM and 1.4 nM and 1.6 nM and 1.2 nM and 1.3 nM
same,IC50,"[10]; ART-PPQ-AQ isolates, read-out: IC50s",0.84 nM and 1.26 nM and 1.36 nM and 1.54 nM and 1.3 nM and 1.03 nM and 1.1 nM and 1.39 nM
same,IC50,"[10]; Cambodian ACT-resistant isolates, read-out: IC50",0.21 to 1.84 nM
same,IC50,"[10]; MQ-ART isolates, read-out: IC50s",1.48 nM
same,IC50,"[10]; WT isolates, read-out: IC50s",1.57 nM and 1.28 nM and 1.01 nM and 1.31 nM and 1.26 nM and 1.38 nM and 1.32 nM and 1.61 nM
CC(CNC(=O)C(O)C(C)(C)CO)NC(=O)CCc1ccccc1F (stereo in doubt) [MMV689258],IC50,[11],5 nM
